In ChEMBL document CHEMBL2331144, “Synthesis and anticancer activity of analogues of phenstatin, with a phenothiazine A-ring, as a new class of microtubule-targeting agents” (Bioorg Med Chem Lett, 2013):

What was measured:
[1] = Inhibition of sheep brain tubulin polymerization using DAPI by fluorimetry; parameters: species or system Ovis aries
NCI-H460 = assay: Growth inhibition of human NCI-H460 cells after 48 hrs by sulforhodamine B assay; format: functional; settings: NCI-H460, 48 h
Ovis aries = organism: Ovis aries; assay: Inhibition of sheep brain tubulin polymerization at 100 uM using DAPI by fluorimetry
MCF7 = assay: Growth inhibition of human MCF7 cells after 48 hrs by sulforhodamine B assay; format: functional; settings: MCF7, 48 h
SF-295 = assay: Growth inhibition of human SF295 cells after 48 hrs by sulforhodamine B assay; format: functional; settings: SF-295, 48 h
DU-145 = assay: Growth inhibition of human DU145 cells after 48 hrs by sulforhodamine B assay; format: functional; settings: DU-145, 48 h
A498 = assay: Growth inhibition of human A498 cells after 48 hrs by sulforhodamine B assay; format: functional; settings: A498, 48 h
OVCAR-3 = assay: Growth inhibition of human OVCAR3 cells after 48 hrs by sulforhodamine B assay; format: functional; settings: OVCAR-3, 48 h
NCI-H522 = assay: Growth inhibition of human NCI-H522 cells after 48 hrs by sulforhodamine B assay; format: functional; settings: NCI-H522, 48 h
COLO 205 = assay: Growth inhibition of human COLO205 cells after 48 hrs by sulforhodamine B assay; format: functional; settings: COLO 205, 48 h
NCI-H23 = assay: Growth inhibition of human NCI-H23 cells after 48 hrs by sulforhodamine B assay; format: functional; settings: NCI-H23, 48 h
HOP-62 = assay: Growth inhibition of human HOP62 cells after 48 hrs by sulforhodamine B assay; format: functional; settings: HOP-62, 48 h
HOP-92 = assay: Growth inhibition of human HOP92 cells after 48 hrs by sulforhodamine B assay; format: functional; settings: HOP-92, 48 h
A549 = assay: Growth inhibition of human A549/ATCC cells after 48 hrs by sulforhodamine B assay; format: functional; settings: A549, 48 h
SR = assay: Growth inhibition of human SR cells after 48 hrs by sulforhodamine B assay; format: functional
RPMI-8226 = assay: Growth inhibition of human RPMI8226 cells after 48 hrs by sulforhodamine B assay; format: functional; settings: RPMI-8226, 48 h
MOLT-4 = assay: Growth inhibition of human MOLT4 cells after 48 hrs by sulforhodamine B assay; format: functional; settings: MOLT-4, 48 h
K562 = assay: Growth inhibition of human K562 cells after 48 hrs by sulforhodamine B assay; format: functional; settings: K562, 48 h
HL-60(TB) = assay: Growth inhibition of human HL-60(TB) cells after 48 hrs by sulforhodamine B assay; format: functional; settings: HL-60, 48 h
CCRF-CEM = assay: Growth inhibition of human CCRF-CEM cells after 48 hrs by sulforhodamine B assay; format: functional
T47D = assay: Growth inhibition of human T47D cells after 48 hrs by sulforhodamine B assay; format: functional
MDA-MB-468 = assay: Growth inhibition of human MDA-MB-468 cells after 48 hrs by sulforhodamine B assay; format: functional; settings: MDA-MB-468, 48 h
BT-549 = assay: Growth inhibition of human BT549 cells after 48 hrs by sulforhodamine B assay; format: functional; settings: BT-549, 48 h
[2] = Growth inhibition of human Hs 578T cells after 48 hrs by sulforhodamine B assay; format: functional
MDA-MB-231 = assay: Growth inhibition of human MDA-MB-231 cells after 48 hrs by sulforhodamine B assay; format: functional; settings: MDA-MB-231, 48 h
SF-539 = assay: Growth inhibition of human SF539 cells after 48 hrs by sulforhodamine B assay; format: functional; settings: SF-539, 48 h
SNB-75 = assay: Growth inhibition of human SNB75 cells after 48 hrs by sulforhodamine B assay; format: functional; settings: SNB-75, 48 h
SF-268 = assay: Growth inhibition of human SF268 cells after 48 hrs by sulforhodamine B assay; format: functional; settings: SF-268, 48 h
PC-3 = assay: Growth inhibition of human PC3 cells after 48 hrs by sulforhodamine B assay; format: functional; settings: PC-3, 48 h
TK-10 = assay: Growth inhibition of human TK10 cells after 48 hrs by sulforhodamine B assay; format: functional; settings: TK-10, 48 h
ACHN = assay: Growth inhibition of human ACHN cells after 48 hrs by sulforhodamine B assay; format: functional
786-0 = assay: Growth inhibition of human 786-0 cells after 48 hrs by sulforhodamine B assay; format: functional; settings: 786-0, 48 h
UO-31 = assay: Growth inhibition of human UO31 cells after 48 hrs by sulforhodamine B assay; format: functional; settings: UO-31, 48 h
RXF 393 = assay: Growth inhibition of human RXF393 cells after 48 hrs by sulforhodamine B assay; format: functional; settings: RXF 393, 48 h
SN12C = assay: Growth inhibition of human SN12C cells after 48 hrs by sulforhodamine B assay; format: functional
CAKI-1 = assay: Growth inhibition of human CAKI-1 cells after 48 hrs by sulforhodamine B assay; format: functional; settings: CAKI-1, 48 h
IGROV-1 = assay: Growth inhibition of human IGROV1 cells after 48 hrs by sulforhodamine B assay; format: functional; settings: IGROV-1, 48 h
SK-OV-3 = assay: Growth inhibition of human SKOV3 cells after 48 hrs by sulforhodamine B assay; format: functional; settings: SK-OV-3, 48 h
[3] = Growth inhibition of human NCI-ADR-RES cells after 48 hrs by sulforhodamine B assay; format: functional
OVCAR-8 = assay: Growth inhibition of human OVCAR8 cells after 48 hrs by sulforhodamine B assay; format: functional; settings: OVCAR-8, 48 h
OVCAR-5 = assay: Growth inhibition of human OVCAR5 cells after 48 hrs by sulforhodamine B assay; format: functional; settings: OVCAR-5, 48 h
OVCAR-4 = assay: Growth inhibition of human OVCAR4 cells after 48 hrs by sulforhodamine B assay; format: functional; settings: OVCAR-4, 48 h
SK-MEL-5 = assay: Growth inhibition of human SK-MEL-5 cells after 48 hrs by sulforhodamine B assay; format: functional; settings: SK-MEL-5, 48 h
UACC-257 = assay: Growth inhibition of human UACC257 cells after 48 hrs by sulforhodamine B assay; format: functional; settings: UACC-257, 48 h
Malme-3M = assay: Growth inhibition of human MALME-3M cells after 48 hrs by sulforhodamine B assay; format: functional
LOX IMVI = assay: Growth inhibition of human LOXIMVI cells after 48 hrs by sulforhodamine B assay; format: functional
UACC-62 = assay: Growth inhibition of human UACC62 cells after 48 hrs by sulforhodamine B assay; format: functional; settings: UACC-62, 48 h
SK-MEL-28 = assay: Growth inhibition of human SK-MEL-28 cells after 48 hrs by sulforhodamine B assay; format: functional; settings: SK-MEL-28, 48 h
SK-MEL-2 = assay: Growth inhibition of human SK-MEL-2 cells after 48 hrs by sulforhodamine B assay; format: functional; settings: SK-MEL-2, 48 h
MDA-MB-435 = assay: Growth inhibition of human MDA-MB-435 cells after 48 hrs by sulforhodamine B assay; format: functional; settings: MDA-MB-435, 48 h
M14 = assay: Growth inhibition of human M14 cells after 48 hrs by sulforhodamine B assay; format: functional; settings: M14, 48 h
SW-620 = assay: Growth inhibition of human SW620 cells after 48 hrs by sulforhodamine B assay; format: functional; settings: SW-620, 48 h
KM12 = assay: Growth inhibition of human KM12 cells after 48 hrs by sulforhodamine B assay; format: functional; settings: KM12, 48 h
HT-29 = assay: Growth inhibition of human HT-29 cells after 48 hrs by sulforhodamine B assay; format: functional; settings: HT-29, 48 h
HCT-116 = assay: Growth inhibition of human HCT116 cells after 48 hrs by sulforhodamine B assay; format: functional; settings: HCT-116, 48 h
HCT-15 = assay: Growth inhibition of human HCT15 cells after 48 hrs by sulforhodamine B assay; format: functional; settings: HCT-15, 48 h
[4] = Growth inhibition of human HCC2998 cells after 48 hrs by sulforhodamine B assay; format: functional; settings: HCC 2998, 48 h

## C=C(c1ccc(OC)c(O)c1)c1cc(OC)c(OC)c(OC)c1
[1]
  IC50: 1500 nM

## COc1ccc(C(=O)c2cc(OC)c(OC)c(OC)c2)cc1O [PHENSTATIN]
NCI-H460
  GI50: 6 nM
[1]
  IC50: 3430 nM
Ovis aries
  inhibition: 99%
MCF7
  GI50: 437 nM
SF-295
  GI50: 52 nM
DU-145
  GI50: 34 nM
A498
  GI50: 380 nM
OVCAR-3
  GI50: 2 nM

## COc1cc([C@@H]2c3cc4c(cc3C[C@H]3COC(=O)[C@@H]32)OCO4)cc(OC)c1OC [DESOXYPODOPHYLLOTOXIN]
[1]
  IC50: 1760 nM
Ovis aries
  inhibition: 100%

## CCOc1ccc(C(=O)N2c3ccccc3Sc3ccccc32)cc1Cl
NCI-H522
  GI50: 221 nM
COLO 205
  GI50: 354 nM
NCI-H460
  GI50: 368 nM
NCI-H23
  GI50: 999 nM
HOP-62
  GI50: 512 nM
HOP-92
  GI50: 272 nM
A549
  GI50: 620 nM
SR
  GI50: 142 nM
RPMI-8226
  GI50: 424 nM
MOLT-4
  GI50: 408 nM
K562
  GI50: 277 nM
HL-60(TB)
  GI50: 315 nM
CCRF-CEM
  GI50: 361 nM
Ovis aries
  inhibition: 48%
T47D
  GI50: 466 nM
MDA-MB-468
  GI50: 257 nM
BT-549
  GI50: 613 nM
[2]
  GI50: 573 nM
MDA-MB-231
  GI50: 531 nM
MCF7
  GI50: 419 nM
SF-539
  GI50: 239 nM
SNB-75
  GI50: 283 nM
SF-295
  GI50: 254 nM
SF-268
  GI50: 1760 nM
PC-3
  GI50: 390 nM
TK-10
  GI50: 857 nM
DU-145
  GI50: 476 nM
ACHN
  GI50: 447 nM
786-0
  GI50: 481 nM
UO-31
  GI50: 520 nM
RXF 393
  GI50: 236 nM
SN12C
  GI50: 777 nM
CAKI-1
  GI50: 457 nM
A498
  GI50: 210 nM
IGROV-1
  GI50: 1020 nM
SK-OV-3
  GI50: 623 nM
[3]
  GI50: 376 nM
OVCAR-8
  GI50: 596 nM
OVCAR-5
  GI50: 527 nM
OVCAR-4
  GI50: 3750 nM
OVCAR-3
  GI50: 231 nM
SK-MEL-5
  GI50: 333 nM
UACC-257
  GI50: 564 nM
Malme-3M
  GI50: 446 nM
LOX IMVI
  GI50: 750 nM
UACC-62
  GI50: 451 nM
SK-MEL-28
  GI50: 817 nM
SK-MEL-2
  GI50: 395 nM
MDA-MB-435
  GI50: 95 nM
M14
  GI50: 373 nM
SW-620
  GI50: 349 nM
KM12
  GI50: 426 nM
HT-29
  GI50: 320 nM
HCT-116
  GI50: 457 nM
HCT-15
  GI50: 373 nM
[4]
  GI50: 2700 nM

## COc1cc2cc(C(=O)N3c4ccccc4Sc4ccccc43)[nH]c2cc1OC
NCI-H522
  GI50: 335 nM
COLO 205
  GI50: 595 nM
NCI-H460
  GI50: 396 nM
NCI-H23
  GI50: 7140 nM
HOP-62
  GI50: 838 nM
HOP-92
  GI50: 54 nM
A549
  GI50: 656 nM
SR
  GI50: 303 nM
RPMI-8226
  GI50: 902 nM
MOLT-4
  GI50: 1540 nM
K562
  GI50: 437 nM
HL-60(TB)
  GI50: 387 nM
CCRF-CEM
  GI50: 589 nM
Ovis aries
  inhibition: 36%
T47D
  GI50: 804 nM
MDA-MB-468
  GI50: 204 nM
BT-549
  GI50: 6060 nM
[2]
  GI50: 1960 nM
MDA-MB-231
  GI50: 184 nM
MCF7
  GI50: 368 nM
SF-539
  GI50: 517 nM
SNB-75
  GI50: 392 nM
SF-295
  GI50: 329 nM
SF-268
  GI50: 10200 nM
PC-3
  GI50: 435 nM
TK-10
  GI50: 8310 nM
DU-145
  GI50: 679 nM
ACHN
  GI50: 611 nM
786-0
  GI50: 941 nM
RXF 393
  GI50: 363 nM
SN12C
  GI50: 3860 nM
CAKI-1
  GI50: 573 nM
A498
  GI50: 215 nM
IGROV-1
  GI50: 1880 nM
SK-OV-3
  GI50: 723 nM
[3]
  GI50: 571 nM
OVCAR-8
  GI50: 1630 nM
OVCAR-5
  GI50: 2590 nM
OVCAR-4
  GI50: 1750 nM
OVCAR-3
  GI50: 366 nM
SK-MEL-5
  GI50: 300 nM
Malme-3M
  GI50: 503 nM
LOX IMVI
  GI50: 3310 nM
UACC-62
  GI50: 529 nM
SK-MEL-28
  GI50: 829 nM
SK-MEL-2
  GI50: 873 nM
MDA-MB-435
  GI50: 184 nM
M14
  GI50: 599 nM
SW-620
  GI50: 418 nM
KM12
  GI50: 620 nM
HT-29
  GI50: 395 nM
HCT-116
  GI50: 537 nM
HCT-15
  GI50: 442 nM
[4]
  GI50: 23400 nM
